Drawing on ChEMBL document CHEMBL1138375, “SAR studies of 6-(arylamino)-4,4-disubstituted-1-methyl-1,4-dihydro-benzo[d][1,3]oxazin-2-ones as progesterone receptor antagonists” (Bioorg Med Chem Lett, 2007), this text covers IC50 for 24 compounds.

This assay has as its target T1, Progesterone receptor (Homo sapiens, UniProt P06401).
T1 sequence (P06401 whole entry): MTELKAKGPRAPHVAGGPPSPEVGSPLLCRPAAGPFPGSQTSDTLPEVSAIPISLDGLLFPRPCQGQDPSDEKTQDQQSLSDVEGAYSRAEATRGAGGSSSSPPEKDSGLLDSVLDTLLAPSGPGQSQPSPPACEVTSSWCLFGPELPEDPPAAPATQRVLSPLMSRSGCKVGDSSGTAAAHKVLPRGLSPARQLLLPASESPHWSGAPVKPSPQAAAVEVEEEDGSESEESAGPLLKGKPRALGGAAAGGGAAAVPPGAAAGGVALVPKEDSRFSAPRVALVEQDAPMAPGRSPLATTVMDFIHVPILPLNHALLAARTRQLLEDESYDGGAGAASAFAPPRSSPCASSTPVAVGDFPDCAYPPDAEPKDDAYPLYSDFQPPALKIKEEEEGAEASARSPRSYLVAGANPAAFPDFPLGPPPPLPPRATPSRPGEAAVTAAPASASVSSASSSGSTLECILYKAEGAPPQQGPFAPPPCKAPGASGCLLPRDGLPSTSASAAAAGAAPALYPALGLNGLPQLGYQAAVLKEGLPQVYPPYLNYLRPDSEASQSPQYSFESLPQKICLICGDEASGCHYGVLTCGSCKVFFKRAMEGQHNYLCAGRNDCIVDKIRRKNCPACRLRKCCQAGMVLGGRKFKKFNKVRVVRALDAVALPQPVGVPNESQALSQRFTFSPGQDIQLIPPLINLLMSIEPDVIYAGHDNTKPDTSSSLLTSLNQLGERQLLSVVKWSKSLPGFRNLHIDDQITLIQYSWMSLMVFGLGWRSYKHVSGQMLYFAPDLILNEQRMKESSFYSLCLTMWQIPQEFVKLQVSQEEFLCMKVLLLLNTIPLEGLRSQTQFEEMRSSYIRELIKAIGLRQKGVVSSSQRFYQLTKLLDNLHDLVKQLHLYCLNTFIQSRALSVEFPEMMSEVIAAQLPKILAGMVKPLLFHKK
Put plainly: Antagonist activity at progesterone receptor expressed in T47D cells assessed as inhibition of progesterone-induced alkaline phosphatase activity. The class given is functional, cell-based.

`CCC1(c2cccs2)OC(=O)N(C)c2ccc(Nc3cccc(Cl)c3)cc21` (centres undefined): the concentration for half-maximal inhibition (IC50) (in general, the midpoint of a concentration-inhibition curve) came out at 32.2 nM. For `CCC1(CC)OC(=O)N(C)c2ccc(Nc3ccc(F)c(Cl)c3)cc21`, the IC50 turned out to be 9 nM. For the compound `CC1(C)OC(=O)N(Cc2ccccc2)c2ccc(Nc3ccc(Br)cc3)cc21`, the half-inhibitory concentration (IC50) turned out to be 3000 nM.

Turning to `CC1(C)OC(=O)Nc2ccc(Nc3cccc(Cl)c3Cl)cc21`, the IC50 was determined as 206 nM. Regarding `CCC1(CC)OC(=O)N(C)c2ccc(Nc3cc(Cl)cc(Cl)c3)cc21`, the half-inhibitory concentration (IC50) is 8.1 nM. For `CN1C(=O)OC(C)(C)c2cc(Nc3ccc(Br)cc3)ccc21`, the half-maximal inhibitory concentration (IC50) was determined as 54.4 nM.

As to `CCC1(CC)OC(=O)N(C)c2ccc(Nc3cc(F)cc(C#N)c3)cc21`, the IC50 came to 14.5 nM. `CC1(C)OC(=O)N(c2ccccc2)c2ccc(Nc3ccc(Br)cc3)cc21`: the IC50 stood at 3000 nM. Consider `CCC1(CC)OC(=O)N(C)c2ccc(Nc3cc(F)cc([N+](=O)[O-])c3)cc21`, for which the half-inhibitory concentration (IC50) is 8.4 nM. Consider `CCC1(CC)OC(=O)N(C)c2ccc(Nc3ccc(C#N)c(F)c3)cc21`, for which the IC50 was found to be 37.1 nM. Take `CN1C(=O)OC(C)(C)c2cc(Nc3ccc(Cl)c(Cl)c3)ccc21`: the 50% inhibitory concentration (IC50) amounted to 100 nM.

With `CCN1C(=O)OC(C)(C)c2cc(Nc3ccc(Br)cc3)ccc21`, the IC50 is 1000 nM.

Take `CN1C(=O)OC(c2ccc(Cl)cc2)(c2ccc(Cl)cc2)c2cc(Nc3cccc(Cl)c3)ccc21`: the IC50 worked out at 1000 nM.

As to `CN1C(=O)OC(C)(C)c2cc(Nc3cccc(Cl)c3Cl)ccc21`, the IC50 is 56 nM. Take `CCC1(CC)OC(=O)N(C)c2ccc(Nc3ccc(Cl)c(Cl)c3)cc21`: the IC50 stood at 29.8 nM. For `CCC1(CC)OC(=S)N(C)c2ccc(Nc3ccc(F)c(F)c3)cc21`, the IC50 was determined as 42.2 nM. As to `CCC1(c2ccccc2)OC(=O)N(C)c2ccc(Nc3cccc(Cl)c3)cc21` (centres undefined), the IC50 came to 66.1 nM. As for `CCC1(CC)OC(=O)N(C)c2ccc(Nc3cccc(Cl)c3)cc21`, the concentration for half-maximal inhibition (IC50) was determined as 13.1 nM.

In the case of `CC(C)N1C(=O)OC(C)(C)c2cc(Nc3ccc(Br)cc3)ccc21`, the 50% inhibitory concentration (IC50) worked out at 1000 nM. As for `CN1C(=S)OC(C)(C)c2cc(Nc3ccc(Br)cc3)ccc21`, the half-maximal inhibitory concentration (IC50) was found to be 30 nM. To `CCC1(CC)OC(=O)N(C)c2ccc(Nc3ccc(F)c(F)c3)cc21` belongs 27.4 nM; to `CCC1(CC)OC(=O)N(C)c2ccc(Nc3cccc(Cl)c3Cl)cc21`, 5 nM; to `CCC1(CC)OC(=O)N(C)c2ccc(Nc3ccc(F)c(C#N)c3)cc21`, 9.2 nM.

As for `CCC1(c2ccc(Cl)cc2)OC(=O)N(C)c2ccc(Nc3cccc(Cl)c3)cc21` (centres undefined), the IC50 came out at 71.8 nM.
